The target of one assay is T1, AlkR (Pseudomonas aeruginosa, UniProt Q9I3I7).
T1 construct: gene PA1526
T1 sequence (Q9I3I7 1-219): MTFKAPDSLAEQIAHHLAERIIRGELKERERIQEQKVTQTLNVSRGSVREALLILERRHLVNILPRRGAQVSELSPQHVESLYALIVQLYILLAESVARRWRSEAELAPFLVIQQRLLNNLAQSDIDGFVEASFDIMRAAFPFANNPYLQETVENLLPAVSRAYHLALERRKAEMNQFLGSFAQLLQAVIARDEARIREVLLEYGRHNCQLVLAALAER
Description: EMSA, release of AlkR from alkB2 promoter DNA. In kind it is binding. Conditions: AlkR 5.8 × 10^-7 M, P3 DNA fragment 5 × 10^-7 M, pH 7.5, 37 °C; not an IC50.

Assay [1] deals with AlkR, GntR/VanR transcription regulator of Pseudomonas aeruginosa SJTD-1 (Pseudomonas aeruginosa SJTD-1). Description: SEC; size exclusion chromatography of purified recombinant AlkR; conditions not given.
The target is the same in assay [2]. Description: cross-linking; purified recombinant AlkR treated with sulfo-EGS, detected by 8% native PAGE.

As to `CCCCCCCCCCCCCCCC(=O)SCCNC(=O)CCNC(=O)[C@H](O)C(C)(C)COP(=O)(O)OP(=O)(O)OC[C@H]1O[C@@H](n2cnc3c(N)ncnc32)[C@H](O)[C@@H]1OP(=O)(O)O` [C16-CoA, palmitoyl coenzyme A], the “concentration for effective dissociation of the AlkR/DNA complex” value on AlkR was ~ 150 μM.

On to `CCCCCCCC/C=C\CCCCCCCC(=O)SCCNC(=O)CCNC(=O)[C@H](O)C(C)(C)COP(=O)(O)OP(=O)(O)OC[C@H]1O[C@@H](n2cnc3c(N)ncnc32)[C@H](O)[C@@H]1OP(=O)(O)O` [C18-CoA, oleyl coenzyme A], for which the “concentration for effective dissociation of the AlkR/DNA complex” value at AlkR is recorded as ~ 80 μM.

In the case of “AlkR, GntR/VanR transcription regulator of Pseudomonas aeruginosa SJTD-1 (natural protein)”, the stoichiometry N in assay [1] and in assay [2] was 2 throughout.

(Values after PMC12042122, “The GntR/VanR transcription regulator AlkR represses AlkB2 monooxygenase expression and regulates n‐alkane degradation in Pseudomonas aeruginosa SJTD‐1” (mLife, 2025).)
